Calls of active or inactive are those of the source. Numbered stars: 1 amine (or outer) side, 2 acyl side, 3 side chain; on linkers, the order of the positions; unused ones are H or OH. Square brackets hold non-standard residues; d marks the D form. Peptide text beside a SMILES is read from it. ξ: configuration not given here. X1 = CCCCCCC[C@H](O)C[C@@H](N[*:1])[C@@H](O)C(=O)[*:2]; X3 = COc1ccc(CCCC(N[*:1])C(=O)[*:2])cc1; ξThr(3R) = C[C@@H](O)C(N)C(=O)O; NMeN = CN[C@@H](CC(N)=O)C(=O)O; X2 = C/C=C(/N[*:1])C(=O)[*:2]; Dhb = C/C=C(\N)C(=O)O; Sar = CNCC(=O)O
Assays:
Melanocortin receptor 4 = Melanocortin receptor 4 (Homo sapiens, UniProt P32245); type: functional, cell-based;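 note: Cell-based assay with luminescence read-out, confirmatory dose-response testing for agonist activity of biased ligands at MC4R; human U2OS cells with tagged receptor and beta-arrestin; potency of agonists that increase receptor coupling to beta-arrestin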
Chain of Melanocortin receptor 4 (P32245 whole entry): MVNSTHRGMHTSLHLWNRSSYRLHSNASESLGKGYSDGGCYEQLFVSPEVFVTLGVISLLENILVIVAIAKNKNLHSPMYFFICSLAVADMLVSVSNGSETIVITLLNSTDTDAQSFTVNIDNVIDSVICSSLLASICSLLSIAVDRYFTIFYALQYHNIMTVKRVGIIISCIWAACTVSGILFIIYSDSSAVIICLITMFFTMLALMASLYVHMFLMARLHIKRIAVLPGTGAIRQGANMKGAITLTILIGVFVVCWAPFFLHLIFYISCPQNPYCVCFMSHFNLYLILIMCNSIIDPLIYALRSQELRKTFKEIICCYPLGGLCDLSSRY

[1] = P. falciparum Dd2 growth inhibitors, dose response, SYBR Green, cherry-picked samples (AID 1159567); type: functional, cell-based
[2] = target: 72 kDa type IV collagenase (Homo sapiens, UniProt P08253); assay: Dose Response validation of uHTS RPN11 inhibitor hits using a MMP-2 Fluorescence assay.; type: functional
Chain of 72 kDa type IV collagenase (P08253 whole entry): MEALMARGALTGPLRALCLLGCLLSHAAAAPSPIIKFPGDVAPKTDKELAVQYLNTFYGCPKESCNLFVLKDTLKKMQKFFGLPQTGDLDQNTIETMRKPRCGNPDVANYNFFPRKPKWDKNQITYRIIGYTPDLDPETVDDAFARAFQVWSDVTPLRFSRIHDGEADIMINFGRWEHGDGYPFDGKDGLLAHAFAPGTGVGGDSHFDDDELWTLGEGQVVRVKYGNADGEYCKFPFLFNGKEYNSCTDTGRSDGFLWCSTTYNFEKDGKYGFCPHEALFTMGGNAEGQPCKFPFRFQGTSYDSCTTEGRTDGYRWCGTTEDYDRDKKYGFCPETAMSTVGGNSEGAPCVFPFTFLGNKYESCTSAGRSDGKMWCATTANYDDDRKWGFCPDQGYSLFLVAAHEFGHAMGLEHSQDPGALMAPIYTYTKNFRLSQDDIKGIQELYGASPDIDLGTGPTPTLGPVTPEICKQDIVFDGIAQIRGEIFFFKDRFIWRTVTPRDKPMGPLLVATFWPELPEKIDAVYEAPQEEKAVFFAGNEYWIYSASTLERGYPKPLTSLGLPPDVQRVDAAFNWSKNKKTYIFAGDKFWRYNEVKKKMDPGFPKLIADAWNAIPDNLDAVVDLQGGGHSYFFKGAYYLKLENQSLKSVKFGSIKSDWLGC

Prothrombin = Prothrombin (Bos taurus, UniProt P00735); assay: thrombin protease inhibitors – biochemical, fluorescence polarization, uHTS hits, dose response (AID 602369); type: functional
[3] = target: 26S proteasome non-ATPase regulatory subunit 14 (Homo sapiens, UniProt O00487); assay: inhibition of proteasome subunit RPN11 – biochemical, fluorescence polarization, uHTS hits, confirmation (AID 602368); type: functional
Chain of 26S proteasome non-ATPase regulatory subunit 14 (O00487 whole entry): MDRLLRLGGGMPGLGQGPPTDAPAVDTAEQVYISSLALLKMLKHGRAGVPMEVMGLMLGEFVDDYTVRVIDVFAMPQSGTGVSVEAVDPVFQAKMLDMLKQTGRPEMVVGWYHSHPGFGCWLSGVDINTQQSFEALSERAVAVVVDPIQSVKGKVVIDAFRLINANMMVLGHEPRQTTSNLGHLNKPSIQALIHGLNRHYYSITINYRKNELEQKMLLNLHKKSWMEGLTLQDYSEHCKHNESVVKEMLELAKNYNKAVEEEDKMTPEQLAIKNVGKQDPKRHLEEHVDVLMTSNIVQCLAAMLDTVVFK

[4] = target: T1, Long-chain-fatty-acid--AMP ligase FadD28 (Mycobacterium tuberculosis, UniProt P9WQ59); assay: Fluorescence polarization aasay to screen for inhibitors that compete for the binding of FadD28 to a bisubstrate Measured in Biochemical System Using Plate Reader - 2147-01_Inhibitor_Dose_CherryPick_Activity.; type: functional, Mycobacterium tuberculosis H37Rv
T1 sequence (P9WQ59 whole entry): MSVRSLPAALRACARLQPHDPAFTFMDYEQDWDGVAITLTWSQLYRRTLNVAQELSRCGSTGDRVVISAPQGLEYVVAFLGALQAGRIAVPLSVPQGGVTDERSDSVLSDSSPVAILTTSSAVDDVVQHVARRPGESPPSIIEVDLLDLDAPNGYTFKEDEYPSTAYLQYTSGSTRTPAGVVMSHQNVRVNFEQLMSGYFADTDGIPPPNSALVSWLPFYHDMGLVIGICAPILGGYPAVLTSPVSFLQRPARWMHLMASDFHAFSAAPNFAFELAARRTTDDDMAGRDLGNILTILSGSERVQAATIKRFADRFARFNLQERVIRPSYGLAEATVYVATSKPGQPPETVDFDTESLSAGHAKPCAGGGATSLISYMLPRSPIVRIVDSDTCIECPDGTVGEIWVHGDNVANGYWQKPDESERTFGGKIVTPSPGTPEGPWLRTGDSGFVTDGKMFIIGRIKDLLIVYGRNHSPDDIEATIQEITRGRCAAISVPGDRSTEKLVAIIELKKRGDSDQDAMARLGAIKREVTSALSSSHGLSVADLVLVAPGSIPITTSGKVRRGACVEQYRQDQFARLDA

[5] = Luminescence Cell-Based Dose Response HTS to Identify Inhibitors of 5'UTR Stem-Loop Driven Prion Protein mRNA Translation in H4 Neuroglioblastoma Cells. [Related pubchem assays: 1827 (Project Summary), 1813 (Primary HTS)]; type: functional
[6] = Trypanosoma cruzi growth suppression in host cells – NIH3T3 host cells, beta-gal luminescence, confirmation (AID 2044); type: functional, cell-based;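 note: intracellular parasites grown in NIH/3T3 mouse fibroblasts as host cells; luminescent beta-galactosidase reporter signal from transgenic T. cruzi replicating inside host cells; inhibitors lower the luminescence signal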
[7] = alpha-synuclein stem-loop luciferase translation blockers – H4 neuroglioma cells, luminescence, confirmation (AID 1988); type: functional, cell-based
[8] = luciferase reporter signal suppression in cells – H4 neuroglioma cells, luminescence, dose response (AID 1990); type: functional, cell-based
[9] = NIH3T3 cell viability loss – ATP luminescence, mouse fibroblasts, counter-screen, dose response (AID 2010); type: functional, cell-based;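 note: cells exposed to compound for about 90 hours before reading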
Vero = assay: cells; type: functional, cell-based; conditions: Chlorocebus sabaeus
[10] = viability of uninfected HEp-2 cells – cell-based, HTS, cytotoxicity control for RSV inhibitor project, dose response (AID 2410); type: functional; conditions: human respiratory syncytial virus
Cysteine protease ATG4B = target: T2, Cysteine protease ATG4B (Homo sapiens, UniProt Q9Y4P1); type: functional;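 note: Fluorescence-based dose-response confirmation assay measuring inhibition of ATG4B activity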
T2 sequence (Q9Y4P1 whole entry): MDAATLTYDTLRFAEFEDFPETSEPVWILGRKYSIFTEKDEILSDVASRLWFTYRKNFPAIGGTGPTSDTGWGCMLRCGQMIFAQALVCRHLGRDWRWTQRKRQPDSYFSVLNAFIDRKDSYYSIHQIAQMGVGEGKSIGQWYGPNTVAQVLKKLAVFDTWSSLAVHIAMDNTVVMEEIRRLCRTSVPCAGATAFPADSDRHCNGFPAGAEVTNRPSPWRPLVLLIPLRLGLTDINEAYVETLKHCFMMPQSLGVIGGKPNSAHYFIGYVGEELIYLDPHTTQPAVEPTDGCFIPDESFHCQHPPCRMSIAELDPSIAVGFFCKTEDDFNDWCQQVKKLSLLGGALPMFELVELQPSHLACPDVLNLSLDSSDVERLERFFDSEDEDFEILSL

cells [11] = assay: cells
Phospholipase A2 = Phospholipase A2 (Homo sapiens, UniProt P04054); type: functional;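 note: confirmatory dose-response counterscreen on phospholipase A2, testing hits that came from an ultra-high-throughput screen for ATG4B inhibitors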
Chain of Phospholipase A2 (P04054 whole entry): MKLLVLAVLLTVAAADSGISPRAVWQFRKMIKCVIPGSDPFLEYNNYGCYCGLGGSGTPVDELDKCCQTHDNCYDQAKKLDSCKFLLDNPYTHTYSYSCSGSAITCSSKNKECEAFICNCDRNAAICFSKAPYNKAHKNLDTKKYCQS

Protein Wnt-3a = Protein Wnt-3a (Mus musculus, UniProt P27467); assay: antagonism of Wnt3a pathway luciferase reporter – Wnt-LIGHT cells, luminescence, selectivity assay for Gli-SUFU antagonist project, dose response (AID 651570); type: functional; conditions: read-out: IC50_Mean;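 note: Wnt-LIGHT reporter cells stimulated with conditioned medium from Wnt3a-producing cells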
Chain of Protein Wnt-3a (P27467 whole entry): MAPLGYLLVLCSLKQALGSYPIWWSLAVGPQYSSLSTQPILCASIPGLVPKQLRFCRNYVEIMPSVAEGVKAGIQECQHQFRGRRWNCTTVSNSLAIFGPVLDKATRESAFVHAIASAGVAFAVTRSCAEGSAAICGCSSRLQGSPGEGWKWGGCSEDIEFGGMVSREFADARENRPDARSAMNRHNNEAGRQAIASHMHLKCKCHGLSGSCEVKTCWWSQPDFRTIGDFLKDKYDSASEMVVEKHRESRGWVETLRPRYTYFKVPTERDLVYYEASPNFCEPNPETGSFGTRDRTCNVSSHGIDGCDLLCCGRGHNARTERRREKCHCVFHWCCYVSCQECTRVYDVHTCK

cells [12] = type: functional
[13] = reduction of Shn3 3'UTR-driven luciferase in osteoblasts – cell-based, Clone20 osteoblasts, firefly luciferase, cherry-picked, dose response (AID 624132); type: functional;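 note: firefly luciferase luminescence from reporter carrying the Shn3 3'UTR in osteoblasts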
[14] = target: T3, Heat shock factor protein 1 (Mus musculus, UniProt P38532); assay: decrease of HSF1-responsive luciferase luminescence – cell-based, NIH3T3, dose retest, confirmation (AID 2382); type: functional;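 note: NIH3T3 fibroblasts with HSF1-driven luciferase reporter stressed by proteasome inhibitor MG132; luminescence from HSF1-driven luciferase expression after 8 hours of MG132 stress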
T3 sequence (P38532 whole entry): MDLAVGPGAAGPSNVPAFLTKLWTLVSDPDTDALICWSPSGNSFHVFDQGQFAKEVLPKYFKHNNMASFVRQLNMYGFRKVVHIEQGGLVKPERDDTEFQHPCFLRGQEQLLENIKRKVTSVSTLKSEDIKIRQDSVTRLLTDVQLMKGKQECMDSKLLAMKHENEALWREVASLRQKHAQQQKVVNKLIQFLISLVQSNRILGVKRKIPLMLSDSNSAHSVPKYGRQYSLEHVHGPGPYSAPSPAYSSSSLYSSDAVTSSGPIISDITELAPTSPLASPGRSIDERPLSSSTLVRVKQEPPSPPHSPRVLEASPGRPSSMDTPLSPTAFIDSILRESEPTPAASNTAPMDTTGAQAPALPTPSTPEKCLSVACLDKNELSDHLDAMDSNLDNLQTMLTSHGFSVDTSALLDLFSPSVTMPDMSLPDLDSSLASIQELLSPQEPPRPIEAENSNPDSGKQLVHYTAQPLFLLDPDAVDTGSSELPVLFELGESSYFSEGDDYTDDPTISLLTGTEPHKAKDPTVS

[15] = loss of viability in HepG2 cells – cell-based, CellTiter-Glo, cherry-picked, cytotoxicity control for Shn3 inhibitor project, dose response (AID 624134); type: functional

Compound: FC(F)(F)c1cccnc1Oc1ccc(C2=NCCS2)cc1
- EC50 (Melanocortin receptor 4): > 89.1 µM (inactive)

Compound: COc1ccc(C#Cc2ccc3c(c2)O[C@@H](CN(C)C(=O)Nc2cccc(OC)c2)[C@H](C)CN([C@@H](C)CO)S3(=O)=O)cc1
- AC50 [1]: 3.01 µM (active)
- IC50 [2]: > 100 µM (inactive)
- IC50 (Prothrombin): 42.8 µM (active)
- IC50 [3]: 30.5 µM (active)

Compound: COc1ccc(-c2nnn(CC(=O)c3c[nH]c4ccccc34)n2)cc1OC
- AC50 [4]: > 100 µM (inactive)

Compound: Fc1ccc(C2c3[nH]c4ccccc4c3CCN2Cc2cccn2-c2ncccn2)cc1 (stereo not drawn)
- EC50 [5]: 13.1 µM (active)
- EC50 [6]: 1.7 µM (active)
- EC50 [7]: > 120 µM (not active)
- EC50 [8]: 14.6 µM (active)
- EC50 [9]: > 60 µM (not active)
- IC50 (Vero): > 25 µM (active)
- CC50 [10]: 24 µM (active)
- IC50 (Cysteine protease ATG4B): 17.1 µM (active)
- IC50 (cells [11]): 8.94 µM (active)
- IC50 (Phospholipase A2): 15.5 µM (active)

Compound: C/C=C1\NC(=O)[C@H](CC(N)=O)N(C)C(=O)C([C@@H](C)O)NC(=O)C(CCCc2ccc(OC)cc2)NC(=O)[C@H](C(C)C)NC(=O)/C(=C\C)NC(=O)[C@H](O)[C@@H](C[C@@H](O)CCCCCCC)NC(=O)[C@H](C)NC(=O)CN(C)C(=O)[C@H](CCC(N)=O)NC1=O (stereo partly drawn) (cyclo(A[X1][X2]V[X3][ξThr(3R)][NMeN][Dhb]Q[Sar]))
- AC50 [4]: > 100 µM (inactive)

Compound: O=C(CNC(=O)c1ccc([N+](=O)[O-])cc1)N/N=C/c1c[nH]c2ccccc12
- AC50 [4]: 30.2 µM (active)

Compound: COc1ccc(CN2CCC(C(=O)Nc3ccc(Oc4cccnc4)cc3)CC2)c(C)c1C
- IC50 (Protein Wnt-3a): 5.34 µM (active)
- IC50 (cells [12]): 10.3 µM (active)
- AC50 [13]: 3.68 µM (active)
- EC50 [14]: > 195 µM (not active)
- AC50 [15]: 12.9 µM (active)
